This is an account of results in patent US10975056B2 (GlaxoSmithKline Intellectual Property Development Limited, priority 2016, dated 2021).

Structures can show the parent of a compound that is named as a salt. A value given as a limit tells only on which side of the number the result lay.

One assay addresses DNMT1 (Homo sapiens, UniProt P26358). In words: DNMT1 biochemical activity, breaklight assay and/or SPA assay. To be noted: binned activity in either the breaklight or the SPA assay; for IC50: read-out: DNMT1 BioChemical (pIC50 category) (converted). On the procedure: DNMT1 breaklight in vitro assays were conducted in a total volume of 50 μl in a standard 384 well format, using black non-binding surface microplates (Corning 3575). […] Negative control wells used 5 μl of DNMT1 and 5 μl of oligonucleotide but 0 μM SAM. All reagents were made up in 1× assay buffer (20 mM Tris pH 6.8, 25 mM NaCl, 0.5 mM MgCl2, 0.01% Triton X100 and 1 mM DTT). The reaction was incubated at 26° C. for 45 min and then stopped with the addition of 40 μl detection reagent. Detection reagent, made up in 1× Gla assay buffer (20 mM Tris pH 8.0, 80 mM NaCl, 0.75 mM MgCl2, 0.01% Triton X100 and 1 mM DTT) has a final concentration of 100 μM SAH (Sigma #A9384) and 0.0008 units/μl Gla1 restriction endonuclease (Sibenzyme #E494). Following addition of the detection reagent the plate was incubated in the dark at room temperature for 5 hr. Fluorescence intensity was then measured on the PHERAstar FS (BMG Labtech) at Ex 485 nm and Em 520 nm, with a gain of 400 and an integration time of 100 ms.
Biochemical activity of DNMT1 analyzed using SPA technology. Plates (Griener 784075) were pre-stamped with 100 nL/well of compound (11-point, 3-fold serial dilution). […] Low control wells contained 5 μL of buffer instead of enzyme. Following a 40 minute incubation, the reaction was quenched upon the addition of 10 μL of stop mixture containing 1 mM SAM (Sigma A7007) and 2 mg/mL PEI beads (Perkin Elmer RPNQ0098). Plates were sealed, centrifuged for 1 min and then read on a Viewlux (Perkin Elmer) using the 613 nm emission filter/300 s read time following a 30 minute dark adapt. Assay conditions prior to quench consisted of 40 nM DNMT1 (601-1600, produced internally), 100 nM 3H-SAM (American Radiolabeled Chemicals ART 0288), 900 nM SAM (New England BioLabs B9003S) and 200 nM hemi methylated DNA oligonucleotide (synthesized at Integrated DNA Technologies, 5′-[…]-3′) in 50 mM HEPES (pH 8.0), 2 mM MgCl2, 1 mM DTT, 0.01% NP-40 and 0.01% BSA.
Comments • 1. […] Where a field is empty, the compound was not tested in that assay.

The test system of assay [1] is erythroid progenitor cells (EPCs). Nature of the assay: Fetal hemoglobin (HbF) ELISA in day 7 erythroid progenitor cells. The class given is cell-based, human. To be noted: Homo sapiens, Erythroid progenitor cell, HbF ELISA, day 7 EPCs, 5 days; read-out: EPC ELISA (pEC50 category) (converted). On the procedure: Day 7 EPCs were cultured in duplicate plates with serially diluted Compound A for 5 days at 37° C. Wells were then analyzed for either induction of fetal hemoglobin (HbF,HbF ELISA) or cell growth (Cell Titer-Glo). In both cases, signal was normalized to vehicle-control treated cells.
Culture, Expansion, and Characterization of Day 7 Erythroid Progenitor Cells (EPC)s
All donors provided written informed consent for use of their samples, and the collection and use of the samples received institutional review board approval. All cryopreserved human bone marrow CD34+ cells used here were obtained from AlICells (Emeryville, Calif.) and were generally from different donors. The CD34+ cells were cultured to generate EPCs at day 7. Briefly, 1 million cells were cultured in 5% CO2, 5% O2 at 37° C. in H3000 Stemspan media (StemCell Technologies Vancouver, BC, Canada) supplemented with 2 mM L-glutamine, 40 μg/mL human low-density lipoproteins (StemCell Technologies), 10 ng/mL recombinant human (rh) interleukin IL-3 (R&D Systems, Minneapolis, Minn.), 100 ng/mL rh stem cell factor (R&D Systems), and 0.5 U/mL rh erythropoietin (Invitrogen, Grand Island, N.Y.). Cells were split and refed on day 4 with complete culture media described above and harvested on day 7 for evaluation of erythroid marker expression and assessment of γ-globin induction. Day 7 EPCs were then frozen in liquid nitrogen at 5 to 10 million cells/mL in 95% fetal bovine serum (FBS; Invitrogen) with 5% DMSO for subsequent use.
At the time of compound treatment, frozen day 7 EPCs prepared as described above were thawed, washed once and re-suspended in complete culture media as described above with the exception of an increase of rhEPO to 3 U/mL. Cells were counted and diluted to […] for plating into assay plates. Cells were then dispensed, at 30 μL per well with Multidrop™ Combi Reagent Dispenser (Thermo Scientific), into 384-well cell culture plates into which test compounds were pre-dispensed at 100 nL/well. Black Clear Bottom (Greiner Bio-One; 781090) and White (Greiner Bio-One; 781080) plates were used for ELISA and Cell Titer-Glo assays, respectively. The final cell density in the assays is 1,000 cells per well, with final compound concentrations between 33 nM (highest) and […] (lowest) for the 22-points serial dilution.
Fetal Hemoglobin (HbF) ELISA
Coating anti-HbF Ab (Bethyl Lab; cat. A80-136A) was diluted by 100-fold in the coating buffer (0.05 M carbonate-bicarbonate, pH 9.6), and then 20 μL/well was added to a 384-well MaxiSorp ELISA plate (Thermo Fisher; cat. 464718). After 1 hour incubation at room temperature, the plates were washed twice with ELISA washing buffer (50 mM Tris, 0.05% Tween 20, pH 8.0) with an EL406 plate washer (BioTek, Winooski, Vt.). Then, 40 μL/well of blocking buffer consisting of 50 mM Tris and 1% BSA (pH 8.0) was added to the plate and stored at 4° C. with cover sheet overnight, or until time of the assay. The coated ELISA plates were stable for up to 30 days at 4° C. On the day of assay, the plates were washed twice with ELISA washing buffer prior to addition of cell lysate.
After 5 days at 37° C. with 5% CO2 cell culture plates for ELISA assay were put into −80° C. freezer for a minimum of 2 hours. After thawing at room temperature, 30 μL of cell lysis buffer (Invitrogen; cat. FNN0011, supplemented with 1× protease inhibitor) was added to each well and the resulting cell lysate was mixed eight times with a Cybi-Well (Jena, Germany) pipettor. Following the mixing procedure, 20 μL/well of lysate was transferred to the coated ELISA plates described above followed by a 1 hour incubation at room temperature. The ELISA assay plates were washed three times with ELISA wash buffer. 20 μL per well of 1:75,000 to 100,000 diluted horseradish peroxidase (HRP) conjugate detection antiHbF Ab (Bethyl Labs; cat. A80-136P, diluted in 50 mM Tris [pH 8.0], 1% BSA, 0.05% Tween-20) was then added. […]
A general note: ELISA stands for enzyme-linked immunosorbent assay.

Chain of DNMT1 (P26358 whole entry, looked up): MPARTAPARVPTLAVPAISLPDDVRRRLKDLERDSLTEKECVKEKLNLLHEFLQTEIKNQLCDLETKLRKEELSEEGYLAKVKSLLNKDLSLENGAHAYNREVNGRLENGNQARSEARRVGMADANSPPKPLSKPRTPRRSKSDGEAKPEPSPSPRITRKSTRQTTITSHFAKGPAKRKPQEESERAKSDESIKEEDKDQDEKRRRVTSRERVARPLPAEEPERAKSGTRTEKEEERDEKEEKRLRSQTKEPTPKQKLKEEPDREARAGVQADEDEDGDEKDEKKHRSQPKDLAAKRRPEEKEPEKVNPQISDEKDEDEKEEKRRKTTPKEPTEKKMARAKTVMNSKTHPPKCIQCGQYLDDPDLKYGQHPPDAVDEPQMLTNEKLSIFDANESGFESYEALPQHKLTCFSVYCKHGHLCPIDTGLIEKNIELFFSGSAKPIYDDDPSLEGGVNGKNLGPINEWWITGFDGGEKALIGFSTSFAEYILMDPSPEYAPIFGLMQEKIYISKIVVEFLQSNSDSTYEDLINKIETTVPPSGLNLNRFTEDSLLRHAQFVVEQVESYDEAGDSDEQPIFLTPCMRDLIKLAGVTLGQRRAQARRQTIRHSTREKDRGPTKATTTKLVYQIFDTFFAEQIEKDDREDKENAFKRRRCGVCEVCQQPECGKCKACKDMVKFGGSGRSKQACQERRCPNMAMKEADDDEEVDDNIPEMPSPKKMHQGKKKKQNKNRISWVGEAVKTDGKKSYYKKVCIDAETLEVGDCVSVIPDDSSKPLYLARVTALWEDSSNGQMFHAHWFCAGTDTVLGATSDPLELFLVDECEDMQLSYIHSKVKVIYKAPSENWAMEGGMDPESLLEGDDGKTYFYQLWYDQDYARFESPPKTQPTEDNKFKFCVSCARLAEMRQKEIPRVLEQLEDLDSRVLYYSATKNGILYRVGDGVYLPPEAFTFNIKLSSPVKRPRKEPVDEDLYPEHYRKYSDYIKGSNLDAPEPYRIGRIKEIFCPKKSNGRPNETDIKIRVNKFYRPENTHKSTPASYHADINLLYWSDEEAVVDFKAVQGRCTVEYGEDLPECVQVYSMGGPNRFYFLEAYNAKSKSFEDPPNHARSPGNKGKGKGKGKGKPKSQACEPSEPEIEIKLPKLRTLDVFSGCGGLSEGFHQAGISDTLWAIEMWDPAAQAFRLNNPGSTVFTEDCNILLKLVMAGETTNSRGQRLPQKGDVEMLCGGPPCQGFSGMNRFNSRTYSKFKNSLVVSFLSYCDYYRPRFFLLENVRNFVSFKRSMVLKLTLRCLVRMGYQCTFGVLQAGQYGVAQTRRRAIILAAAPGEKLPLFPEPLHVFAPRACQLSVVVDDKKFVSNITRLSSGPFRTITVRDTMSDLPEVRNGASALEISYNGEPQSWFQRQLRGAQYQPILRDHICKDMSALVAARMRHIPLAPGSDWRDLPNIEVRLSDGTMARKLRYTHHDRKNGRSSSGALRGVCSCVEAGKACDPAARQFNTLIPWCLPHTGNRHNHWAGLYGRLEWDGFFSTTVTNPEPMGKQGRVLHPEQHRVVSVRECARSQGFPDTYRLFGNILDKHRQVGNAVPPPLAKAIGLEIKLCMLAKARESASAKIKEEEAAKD

`CCc1c(C#N)c(SC(C(N)=O)c2ccccc2)nc(SC(C(N)=O)c2ccccc2)c1C#N` (centres unmarked) [Example 276, 2,2′-((3,5-Dicyano-4-ethylpyridine-2,6-diyl)bis(sulfanediyl))bis(2-phenylacetamide)]: at DNMT1, the IC50 was 316 to 1000 nM. The EC50 in assay [1] is over 31600 nM. With `CCc1c(C#N)c(SC(C(N)=O)c2ccccc2)nc(N2CCCN(CC(C)(C)O)CC2)c1C#N` (centres unmarked) [Example 194, 2-((3,5-Dicyano-4-ethyl-6-(4-(2-hydroxy-2-methylpropyl)-1,4-diazepan-1-yl)pyridin-2-yl)thio)-2-phenylacetamide], the IC50 at DNMT1 is 316 to 1000 nM. Besides, in assay [1], the EC50 was under 316 nM. As to `CCc1c(C#N)c(SCc2ccc(N3CCCCS3(=O)=O)cc2)nc(N2CCC(NCC(C)(C)C)CC2)c1C#N` [Example 604, 2-((4-(1,1-dioxido-1,2-thiazinan-2-yl)benzyl)thio)-4-ethyl-6-(4-(neopentylamino)piperidin-1-yl)pyridine-3,5-dicarbonitrile], the “DNMT1 BioChemical (pIC50 category)” value on DNMT1 is listed as “D (Category D: ≥6.5)”. Moreover, the EC50 in assay [1] is over 31600 nM. The corresponding values for `CCc1c(C#N)c(SC(C(N)=O)c2ccccc2)nc(N2CCC(NC(=O)[C@@H](N)CO)CC2)c1C#N` (some centres unmarked) [Example 399] are “D (Category D: ≥6.5)” and 1000 to 31600 nM. As to `CCc1c(C#N)c(SC(C(N)=O)c2ccccc2)nc(N(C)CC(=O)NOC)c1C#N` (centres unmarked) [Example 663, 2-((6-((2-amino-2-oxo-1-phenylethyl)thio)-3,5-dicyano-4-ethylpyridin-2-yl)(methyl)amino)-N-methoxyacetamide], the “DNMT1 BioChemical (pIC50 category)” value at DNMT1 is “D (Category D: ≥6.5)”. Further, in assay [1], the EC50 was under 316 nM.

Regarding `CCc1c(C#N)c(SC(C(N)=O)c2ccccc2)nc(N(C)CC(=O)NC2(CO)COC2)c1C#N` (centres unmarked) [Example 675, 2-((6-((2-amino-2-oxo-1-phenylethyl)thio)-3,5-dicyano-4-ethylpyridin-2-yl)(methyl)amino)-N-(3-(hydroxymethyl)oxetan-3-yl)acetamide], the IC50 on DNMT1 is under 316 nM. Moreover, in assay [1], the EC50 was 316 to 1000 nM.

As to `CN(C)C1CCN(c2nc(SC(C(N)=O)c3ccccc3)c(C#N)c(C3CC3)c2C#N)CC1` (centres unmarked) [Example 29, 2-((3,5-dicyano-4-cyclopropyl-6-(4-(dimethylamino)piperidin-1-yl)pyridin-2-yl)thio)-2-phenylacetamide], at DNMT1, the “DNMT1 BioChemical (pIC50 category)” value was “D (Category D: ≥6.5)”. For the same compound, the EC50 in assay [1] is under 316 nM.

On to `CCc1c(C#N)c(SC(C(N)=O)c2ncccc2OC)nc(N2CCCN(C)CC2)c1C#N` (centres unmarked) [Example 209, 2-((3,5-Dicyano-4-ethyl-6-(4-methyl-1,4-diazepan-1-yl)pyridin-2-yl)thio)-2-(3-methoxypyridin-2-yl)acetamide], for which, on DNMT1, the IC50 is 316 to 1000 nM. Besides, in assay [1], the EC50 was 316 to 1000 nM. As for `CCc1c(C#N)c(SC(C(N)=O)c2ccccc2)nc(N2CC[C@H](N)C2)c1C#N` (stereo partly drawn) [Example 528, 2-((6-((S)-3-aminopyrrolidin-1-yl)-3,5-dicyano-4-ethylpyridin-2-yl)thio)-2-phenylacetamide], the “DNMT1 BioChemical (pIC50 category)” value at DNMT1 is on record as “D (Category D: ≥6.5)”. Besides, the EC50 in assay [1] was under 316 nM. Turning to `CCc1c(C#N)c(SC(C(N)=O)c2ccccc2)nc(N2CCC(NCC3(C)CCC3)CC2)c1C#N` (centres unmarked) [Example 466, 2-((3,5-dicyano-4-ethyl-6-(4-(((1-methylcyclobutyl)methyl)amino)piperidin-1-yl)pyridin-2-yl)thio)-2-phenylacetamide], the EC50 in assay [1] was under 316 nM. With `CCc1c(C#N)c(SC(C(N)=O)c2ccccc2)nc(N(C)CC(=O)N2CC[C@@H](CO)C2)c1C#N` (stereo partly drawn) [Example 652, 2-((3,5-dicyano-4-ethyl-6-((2-((R)-3-(hydroxymethyl)pyrrolidin-1-yl)-2-oxoethyl)(methyl)amino)pyridin-2-yl)thio)-2-phenylacetamide], the EC50 in assay [1] is under 316 nM. The same measure, in the same setting: then `CCc1c(C#N)c(SC(C(N)=O)c2ccccc2)nc(N2CCC(N)CC2)c1C#N` (centres unmarked) [Example 143, 2-((6-(4-Aminopiperidin-1-yl)-3,5-dicyano-4-ethylpyridin-2-yl)thio)-2-phenylacetamide], with under 316 nM; and `[2H]C(Sc1nc(N(C)C)c(C#N)c(CC)c1C#N)(C(N)=O)c1ccccc1` (centres unmarked) [Example 305, 2-((3,5-Dicyano-6-(dimethylamino)-4-ethylpyridin-2-yl)thio)-2-phenylacetamide-2-d], with 316 to 1000 nM; and `[2H]C([2H])([2H])N(c1nc(SC(C(N)=O)c2ccccc2)c(C#N)c(CC)c1C#N)C([2H])([2H])[2H]` (centres unmarked) [Example 404, 2-((3,5-Dicyano-6-(dimethylamino-d6)-4-ethylpyridin-2-yl)thio)-2-phenylacetamide], with 316 to 1000 nM. The same measure, in the same setting: the same measure for `CCc1c(C#N)c(S[C@H](C(N)=O)c2ccccc2)nc(N2CCC(N)CC2)c1C#N` [Example 605, (S)-2-((6-(4-aminopiperidin-1-yl)-3,5-dicyano-4-ethylpyridin-2-yl)thio)-2-phenylacetamide, Hydrochloride]: under 316 nM. On to `[2H][C@](Sc1nc(N(C)C)c(C#N)c(CC)c1C#N)(C(N)=O)c1ccccc1` [Example 308, (R)-2-((3,5-Dicyano-6-(dimethylamino)-4-ethylpyridin-2-yl)thio)-2-phenylacetamide-2-d], for which the EC50 in assay [1] was 316 to 1000 nM.

As to `CCc1c(C#N)c(S[C@@H](C(N)=O)c2ccccc2)nc(N2CCC(N)CC2)c1C#N` [Example 412, (R)-2-((6-(4-aminopiperidin-1-yl)-3,5-dicyano-4-ethylpyridin-2-yl)thio)-2-phenylacetamide, Hydrochloride], the EC50 in assay [1] was under 316 nM.
